Source: ChEMBL document CHEMBL1201862, “PubChem BioAssay data set” (2004)
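Exposure lasted 48 hours, with cells grown in 96-well plates and compounds tested at five concentrations. The concentration for 50% growth inhibition is given as GI50.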 Calls of active or inactive are those of the source. No stated cut-off is given here; in the data, active = GI50 up to about 1.1 µM and inactive = higher.

Experiments:
Experiment in all cases: DTP human tumour cell line panel, 48 h
HL-60 = test system: HL-60
SF-295 = test system: SF-295
HOP-92 = test system: HOP-92
DMS-273 = test system: DMS-273
SW-620 = test system: SW-620
SF-539 = test system: SF-539
UACC-62 = test system: UACC-62
A549 = test system: A549
KM12 = test system: KM12
SNB-78 = test system: SNB-78
XF498 = test system: XF498
SN12C = test system: SN12C
MOLT-4 = test system: MOLT-4
M19-MEL = test system: M19-MEL
CAKI-1 = test system: CAKI-1
K562 = test system: K562
Malme-3M = test system: Malme-3M
IGROV-1 = test system: IGROV-1
LOX IMVI = test system: LOX IMVI
OVCAR-5 = test system: OVCAR-5
CCRF-CEM = test system: CCRF-CEM
SNB-75 = test system: SNB-75
HCT-15 = test system: HCT-15
SK-OV-3 = test system: SK-OV-3
OVCAR-3 = test system: OVCAR-3
NCI-H226 = test system: NCI-H226
OVCAR-8 = test system: OVCAR-8
DLD-1 = test system: DLD-1
KM-20L2 = test system: KM-20L2
U-251 = test system: U-251
SK-MEL-5 = test system: SK-MEL-5
OVCAR-4 = test system: OVCAR-4
HT-29 = test system: HT-29
EKVX = test system: EKVX
MCF7 = test system: MCF7
SK-MEL-2 = test system: SK-MEL-2
NCI-H522 = test system: NCI-H522
HCC 2998 = test system: HCC 2998
NCI-H23 = test system: NCI-H23
DMS-114 = test system: DMS-114
COLO 205 = test system: COLO 205
A498 = test system: A498
NCI/ADR-RES = test system: NCI/ADR-RES
NCI-H460 = test system: NCI-H460
SK-MEL-28 = test system: SK-MEL-28
UACC-257 = test system: UACC-257
UO-31 = test system: UO-31
SF-268 = test system: SF-268
HCT-116 = test system: HCT-116
HOP-18 = test system: HOP-18
SNB-19 = test system: SNB-19
RPMI-8226 = test system: RPMI-8226
RXF 393 = test system: RXF 393
HOP-62 = test system: HOP-62
LXFL 529 = test system: LXFL 529
TK-10 = test system: TK-10
ACHN = test system: ACHN
M14 = test system: M14
786-0 = test system: 786-0

Question: What does the source list for `CC(=O)Oc1cc2c(cc1OC(C)=O)OCC(c1ccccc1)C2` (stereo not given)?
Answer: GI50 (HL-60): 3.5 µM (inactive); GI50 (SF-295): 16.4 µM (inactive); GI50 (HOP-92): 9.23 µM (inactive); GI50 (DMS-273): 34.2 µM (inactive); GI50 (SW-620): 6.5 µM (inactive); GI50 (SF-539): 25.7 µM (inactive); GI50 (UACC-62): 19.2 µM (inactive); GI50 (A549): 13 µM (inactive); GI50 (KM12): 25.8 µM (inactive); GI50 (SNB-78): 39.2 µM (inactive); GI50 (XF498): 12.4 µM (inactive); GI50 (SN12C): 26.4 µM (inactive); GI50 (MOLT-4): 5.85 µM (inactive); GI50 (M19-MEL): 14.9 µM (inactive); GI50 (CAKI-1): 16.4 µM (inactive); GI50 (K562): 12.1 µM (inactive); GI50 (Malme-3M): 16.1 µM (inactive); GI50 (IGROV-1): 33.8 µM (inactive); GI50 (LOX IMVI): 13.5 µM (inactive); GI50 (OVCAR-5): 33.3 µM (inactive); GI50 (CCRF-CEM): 4.4 µM (inactive); GI50 (SNB-75): 8.18 µM (inactive); GI50 (HCT-15): 13 µM; GI50 (SK-OV-3): 40.7 µM (inactive); GI50 (OVCAR-3): 22.6 µM (inactive); GI50 (NCI-H226): 22.2 µM (inactive); GI50 (OVCAR-8): 16.9 µM (inactive); GI50 (DLD-1): 9.31 µM (inactive); GI50 (KM-20L2): 34.7 µM (inactive); GI50 (U-251): 7.6 µM (inactive); GI50 (SK-MEL-5): 17.3 µM (inactive); GI50 (OVCAR-4): 24 µM (inactive); GI50 (HT-29): 43.5 µM (inactive); GI50 (EKVX): 28.3 µM (inactive); GI50 (MCF7): 32.5 µM (inactive); GI50 (SK-MEL-2): 27.4 µM (inactive); GI50 (NCI-H522): 2.4 µM (inactive); GI50 (HCC 2998): 29.1 µM (inactive); GI50 (NCI-H23): 32.2 µM (inactive); GI50 (DMS-114): 6.81 µM (inactive); GI50 (COLO 205): 18.1 µM (inactive); GI50 (A498): 7.05 µM (inactive); GI50 (NCI/ADR-RES): 31.3 µM (inactive); GI50 (NCI-H460): 20.7 µM (inactive); GI50 (SK-MEL-28): 31 µM (inactive); GI50 (UACC-257): 14.1 µM (inactive); GI50 (UO-31): 30.2 µM (inactive); GI50 (SF-268): 14.7 µM (inactive); GI50 (HCT-116): 27.6 µM (inactive); GI50 (HOP-18): 29.9 µM (inactive); GI50 (SNB-19): 15 µM (inactive); GI50 (RPMI-8226): 8.39 µM (inactive); GI50 (RXF 393): 14.4 µM (inactive); GI50 (HOP-62): 19.1 µM (inactive)

Question: With `O=C1CCC(=O)c2sccc2N1` as the molecule, how does the GI50 (HL-60) read?
Answer: > 100 µM (inactive)

Question: What about the GI50 (SF-295) of the same molecule?
Answer: > 100 µM (inactive)

Question: What about the GI50 (HOP-92) of the same molecule?
Answer: > 100 µM (inactive)

Question: And the GI50 (DMS-273)?
Answer: > 100 µM (inactive)

Question: And the GI50 (SW-620)?
Answer: > 100 µM (inactive)

Question: What about the GI50 (SF-539) of the same molecule?
Answer: > 100 µM (inactive)

Question: What about the GI50 (A549) of the same molecule?
Answer: > 100 µM (inactive)

Question: What about the GI50 (KM12) of the same molecule?
Answer: > 100 µM (inactive)

Question: And the GI50 (SNB-78)?
Answer: > 100 µM (inactive)

Question: What about the GI50 (XF498) of the same molecule?
Answer: > 100 µM (inactive)

Question: And the GI50 (SN12C)?
Answer: > 100 µM (inactive)

Question: What about the GI50 (MOLT-4) of the same molecule?
Answer: > 100 µM (inactive)

Question: What about the GI50 (M19-MEL) of the same molecule?
Answer: > 100 µM (inactive)

Question: And the GI50 (CAKI-1)?
Answer: > 100 µM (inactive)

Question: And the GI50 (K562)?
Answer: > 100 µM (inactive)

Question: What about the GI50 (Malme-3M) of the same molecule?
Answer: > 100 µM (inactive)

Question: What about the GI50 (IGROV-1) of the same molecule?
Answer: > 100 µM (inactive)

Question: What about the GI50 (LOX IMVI) of the same molecule?
Answer: > 100 µM (inactive)

Question: And the GI50 (LXFL 529)?
Answer: > 100 µM (inactive)

Question: And the GI50 (OVCAR-5)?
Answer: > 100 µM (inactive)

Question: And the GI50 (CCRF-CEM)?
Answer: > 100 µM (inactive)

Question: And the GI50 (SNB-75)?
Answer: > 100 µM (inactive)

Question: What about the GI50 (HCT-15) of the same molecule?
Answer: > 100 µM

Question: And the GI50 (SK-OV-3)?
Answer: > 100 µM (inactive)

Question: What about the GI50 (OVCAR-3) of the same molecule?
Answer: > 100 µM (inactive)

Question: What about the GI50 (NCI-H226) of the same molecule?
Answer: > 100 µM (inactive)

Question: And the GI50 (OVCAR-8)?
Answer: > 100 µM (inactive)

Question: What about the GI50 (DLD-1) of the same molecule?
Answer: > 100 µM (inactive)

Question: And the GI50 (KM-20L2)?
Answer: > 100 µM (inactive)

Question: And the GI50 (U-251)?
Answer: > 100 µM (inactive)

Question: What about the GI50 (SK-MEL-5) of the same molecule?
Answer: > 100 µM (inactive)

Question: And the GI50 (OVCAR-4)?
Answer: > 100 µM (inactive)

Question: And the GI50 (HT-29)?
Answer: > 100 µM (inactive)

Question: What about the GI50 (EKVX) of the same molecule?
Answer: > 100 µM (inactive)

Question: And the GI50 (SK-MEL-2)?
Answer: > 100 µM (inactive)

Question: And the GI50 (NCI-H522)?
Answer: > 100 µM (inactive)

Question: And the GI50 (HCC 2998)?
Answer: > 100 µM (inactive)

Question: And the GI50 (NCI-H23)?
Answer: > 100 µM (inactive)

Question: What about the GI50 (TK-10) of the same molecule?
Answer: > 100 µM (inactive)

Question: What about the GI50 (DMS-114) of the same molecule?
Answer: > 100 µM (inactive)

Question: What about the GI50 (COLO 205) of the same molecule?
Answer: > 100 µM (inactive)

Question: What about the GI50 (A498) of the same molecule?
Answer: > 100 µM (inactive)

Question: What about the GI50 (NCI-H460) of the same molecule?
Answer: > 100 µM (inactive)

Question: And the GI50 (SK-MEL-28)?
Answer: > 100 µM (inactive)

Question: What about the GI50 (ACHN) of the same molecule?
Answer: > 100 µM (inactive)

Question: What about the GI50 (UACC-257) of the same molecule?
Answer: > 100 µM (inactive)

Question: And the GI50 (M14)?
Answer: > 100 µM (inactive)

Question: And the GI50 (UO-31)?
Answer: > 100 µM (inactive)

Question: What about the GI50 (SF-268) of the same molecule?
Answer: > 100 µM (inactive)

Question: What about the GI50 (HCT-116) of the same molecule?
Answer: > 100 µM (inactive)

Question: And the GI50 (786-0)?
Answer: > 100 µM (inactive)

Question: And the GI50 (HOP-18)?
Answer: > 100 µM (inactive)

Question: And the GI50 (SNB-19)?
Answer: > 100 µM (inactive)

Question: And the GI50 (RPMI-8226)?
Answer: > 100 µM (inactive)

Question: And the GI50 (RXF 393)?
Answer: > 100 µM (inactive)

Question: What about the GI50 (HOP-62) of the same molecule?
Answer: > 100 µM (inactive)
